# Read-outs that look alike come from different tables or passages of the source.
# Columns and labels:
# Aphis gossypii = Aphis gossypii spray test on cotton plants; type: in vivo; conditions: for pest or weed control at 20 ppm: Aphis gossypii, 144 h, read-out: efficacy (kill)
# Procedure: Aphis gossypii—Spray Test
# Solvent: 14 parts by weight of dimethylformamide
# Emulsifier: alkylaryl polyglycol ether
# To produce a suitable preparation of active compound, 1 part by weight of active compound is dissolved using the specified parts by weight of solvent and made up with water containing an emulsifier concentration of 1000 ppm until the desired concentration is attained. To produce further test concentrations, the formulation is diluted with emulsifier-containing water. If the addition of ammonium salts or/and penetrants is required, these are each added in a concentration of 1000 ppm to the formulation solution.
# Cotton plants (Gossypium hirsutum) which are heavily infested by the cotton aphid (Aphis gossypii) are sprayed with an active compound formulation of the desired concentration.
# After 6 days, the kill in % is determined. 100% means that all the aphids have been killed; 0% means that no aphids have been killed.
# Myzus persicae [1] = experiment: Myzus persicae oral test (MYZUPE O); type: in vivo; conditions: for Emax at 4 ppm / pest or weed control at 20 ppm / Emax at 0.8 ppm: Myzus persicae, po, 120 h; for Emax at 4 ppm / Emax at 0.8 ppm: read-out: % efficacy; for pest or weed control at 20 ppm: read-out: efficacy
# Procedure: Solvent: 100 parts by weight of acetone
# To produce a suitable preparation of active compound, 1 part by weight of active compound is dissolved using the specified parts by weight of solvent and made up with water until the desired concentration is attained.
# 50 μl of the active compound preparation are transferred into microtitre plates and made up to a final volume of 200 μl with 150 μl of IPL41 insect medium (33%+15% sugar). Subsequently, the plates are sealed with parafilm, which a mixed population of green peach aphids (Myzus persicae) within a second microtitre plate is able to puncture and imbibe the solution through it.
# After 5 days, the efficacy in % is determined. 100% means that all the aphids have been killed; 0% means that no aphids have been killed.
# Myzus persicae—Oral Test (MYZUPE O)
# After 5 or 6 days (dat), the efficacy in % is determined. 100% means that all the aphids have been killed; 0% means that no aphids have been killed.
# [2] = log P by HPLC on reversed-phase columns (OECD Guideline 117), neutral range; type: physicochemical; conditions: for chromatographic logP: reversed-phase (C18) HPLC column
# Myzus persicae [3] = experiment: Myzus persicae spray test (MYZUPE), Chinese cabbage leaf discs; type: in vivo; conditions: for Emax at 100 g/ha / pest or weed control at 500 g/ha: Myzus persicae, foliar; for Emax at 100 g/ha: read-out: % efficacy; for pest or weed control at 500 g/ha: read-out: efficacy
# Procedure: Myzus persicae—Spray Test
# To produce a suitable preparation of active compound, 1 part by weight of active compound is dissolved using the specified parts by weight of solvent and made up with water containing an emulsifier concentration of 1000 ppm until the desired concentration is attained. To produce further test concentrations, the formulation is diluted with emulsifier-containing water.
# Discs of Chinese cabbage leaves (Brassica pekinensis) infested by all stages of the green peach aphid (Myzus persicae) are sprayed with an active compound formulation of the desired concentration.
# After 5 or 6 days, the efficacy in % is determined. 100% means that all the aphids have been killed; 0% means that no aphids have been killed.
# Myzus persicae—Spray Test (MYZUPE)
# Discs of Chinese cabbage leaves (Brassica pekinensis) infested by all stages of the green peach aphid (Myzus persicae) are sprayed with an active compound preparation of the desired concentration.
# After the desired period of time, the efficacy in % is determined. 100% means that all the aphids have been killed; 0% means that no aphids have been killed.
# [4] = after 6 days, application rate 20 ppm, cotton plants
# [5] = after 5 days, application rate 20 ppm
# [6] = after 5 days, application rate 500 g/ha
# [7] = after 6 days, application rate 500 g/ha
# [8] = HPLC, neutral range pH 7.8, read-out: LogP-neutral
# [9] = 120 h, MYZUPE, 100 g of ai/ha, 5 dat
# [10] = 120 h, after 5 days, application rate 500 g/ha
smiles,measurement,setting,value
CN(C(=O)c1cnc(Oc2cncc(C(F)(F)F)c2)n1C)c1cccnc1 [Example II-43],efficacy (kill),Aphis gossypii; [4],100%
same,efficacy,Myzus persicae [1]; [5],100%
same,LogP-neutral,[2]; pH 7.8,1.83
same,efficacy,Myzus persicae [3]; [6],90%
CCN(C(=O)c1cnc(OC(C)C)n1C)c1cccnc1 [Example II-46],efficacy (kill),Aphis gossypii; [4],100%
same,efficacy,Myzus persicae [1]; [5],100%
same,LogP-neutral,[2]; pH 7.8,1.7
same,efficacy,Myzus persicae [3]; [6],100%
CN(C(=O)c1cnc(OCc2cccnc2)n1C)c1cccnc1 [Example II-8],efficacy (kill),Aphis gossypii; [4],99%
same,efficacy,Myzus persicae [1]; [5],100%
same,LogP-neutral,[2]; pH 7.8,1.16
same,efficacy,Myzus persicae [3]; [7],90%
CC(C)Oc1ncc(C(=S)N(C)c2cccnc2)n1C [Example II-3],efficacy (kill),Aphis gossypii; [4],100%
same,efficacy,Myzus persicae [1]; [5],100%
same,LogP-neutral,[2]; pH 7.8,1.99
same,efficacy,Myzus persicae [3]; [6],90%
CN(C(=O)c1cnc(Oc2cccc(Cl)c2)n1C)c1cccnc1 [Example II-2],pest or weed control at 20 ppm,Aphis gossypii,100%
same,Emax at 4 ppm,Myzus persicae [1],100%
same,pest or weed control at 20 ppm,Myzus persicae [1],100%
same,chromatographic logP,"[2]; pH 7.8, HPLC-MS, neutral, read-out: log P[n]",2.1
same,Emax at 100 g/ha,Myzus persicae [3]; 144 h,100%
same,pest or weed control at 500 g/ha,Myzus persicae [3]; 144 h,100%
CN(C(=O)c1cnc(Oc2ccccc2)n1C)c1cccnc1 [Example II-24],efficacy (kill),Aphis gossypii; [4],98%
same,efficacy,Myzus persicae [1]; [5],100%
same,LogP-neutral,"[2]; HPLC, neutral range pH 7.8",1.68
same,efficacy,Myzus persicae [3]; [6],100%
CN(C(=O)c1cnc(Oc2cccc(OC(F)(F)F)c2)n1C)c1cccnc1 [Example II-27],efficacy (kill),Aphis gossypii; [4],98%
same,efficacy,Myzus persicae [1]; [5],100%
same,LogP-neutral,[2]; pH 7.8,2.52
same,efficacy,Myzus persicae [3]; [6],100%
CN(C(=O)c1cnc(Oc2ccc(Cl)nc2)n1C)c1cccnc1 [Example II-15],pest or weed control at 20 ppm,Aphis gossypii; [4],100%
same,Emax at 0.8 ppm,"Myzus persicae [1]; MYZUPE O, 0.8 ppm, 5 dat",100%
same,pest or weed control at 20 ppm,Myzus persicae [1]; [5],100%
same,chromatographic logP,[2]; [8],1.53
same,Emax at 100 g/ha,"Myzus persicae [3]; 144 h, MYZUPE, 100 g of ai/ha, 6 dat",100%
same,pest or weed control at 500 g/ha,"Myzus persicae [3]; 144 h, after 6 days, application rate 500 g/ha",100%
CCCOc1ncc(C(=O)N(C)c2cccnc2)n1C [Example II-5],efficacy (kill),Aphis gossypii; [4],100%
same,efficacy,Myzus persicae [1]; [5],90%
same,LogP-neutral,[2]; pH 7.8,1.52
same,efficacy,Myzus persicae [3]; [7],90%
CN(C(=O)c1cnc(Oc2cccc(C(F)(F)F)c2)n1C)c1cccnc1 [Example II-29],pest or weed control at 20 ppm,Aphis gossypii; [4],100%
same,Emax at 0.8 ppm,"Myzus persicae [1]; MYZUPE O, 0.8 ppm, 5 dat",100%
same,Emax at 4 ppm,"Myzus persicae [1]; MYZUPE O, 4 ppm, 5 dat",100%
same,pest or weed control at 20 ppm,Myzus persicae [1]; [5],100%
same,chromatographic logP,[2]; [8],2.37
same,Emax at 100 g/ha,Myzus persicae [3]; [9],90%
same,pest or weed control at 500 g/ha,Myzus persicae [3]; [10],100%
CN(C(=O)c1cnc(OC2CCOCC2)n1C)c1cccnc1 [Example II-32],efficacy (kill),Aphis gossypii; [4],100%
same,efficacy,Myzus persicae [1]; [5],100%
same,LogP-neutral,[2]; pH 7.8,1.18
same,efficacy,Myzus persicae [3]; [6],90%
CN(C(=O)c1cnc(OC2CCSCC2)n1C)c1cccnc1 [Example II-31],pest or weed control at 20 ppm,Aphis gossypii; [4],98%
same,Emax at 0.8 ppm,"Myzus persicae [1]; MYZUPE O, 0.8 ppm, 5 dat",70%
same,Emax at 4 ppm,"Myzus persicae [1]; MYZUPE O, 4 ppm, 5 dat",100%
same,pest or weed control at 20 ppm,Myzus persicae [1]; [5],100%
same,chromatographic logP,[2]; [8],1.63
same,Emax at 100 g/ha,Myzus persicae [3]; [9],90%
same,pest or weed control at 500 g/ha,Myzus persicae [3]; [10],100%
CN(C(=O)c1cnc(Oc2ccc(Cl)c(Cl)c2)n1C)c1cccnc1 [Example II-28],efficacy,Myzus persicae [1]; [5],90%
same,LogP-neutral,"[2]; HPLC, neutral range pH 7.8",2.57
same,efficacy,Myzus persicae [3]; [6],100%
CCN(C(=O)c1cnc(Oc2ccc(F)nc2)n1C)c1cccnc1 [Example II-95],Emax at 0.8 ppm,Myzus persicae [1],100%
same,Emax at 4 ppm,Myzus persicae [1],90%
same,pest or weed control at 20 ppm,Myzus persicae [1],100%
same,chromatographic logP,[2]; [8],1.55
same,Emax at 100 g/ha,Myzus persicae [3]; 120 h,100%
same,pest or weed control at 500 g/ha,Myzus persicae [3]; 120 h,100%
COc1ncc(Cl)cc1Oc1ncc(C(=O)N(C)c2cccnc2)n1C [Example II-70],efficacy,Myzus persicae [1]; [5],100%
same,LogP-neutral,[2]; pH 7.8,2.02
same,efficacy,Myzus persicae [3]; [6],90%
CCN(C(=O)c1cnc(Oc2cncc(C(F)(F)F)c2)n1C)c1cccnc1 [Example II-92],efficacy,Myzus persicae [1]; [5],100%
same,LogP-neutral,[2]; pH 7.8,2.04
same,efficacy,Myzus persicae [3]; [6],100%
Cc1cc(Oc2ncc(C(=O)N(C)c3cccnc3)n2C)cnc1Cl [Example II-57],efficacy,Myzus persicae [1]; [5],100%
same,LogP-neutral,[2]; pH 7.8,1.78
same,efficacy,Myzus persicae [3]; [6],90%
Cn1c(C(=O)N(c2cccnc2)C2CC2)cnc1Oc1ccc(Cl)nc1 [Example II-90],efficacy,Myzus persicae [1]; [5],100%
same,LogP-neutral,"[2]; HPLC, neutral range pH 7.8",1.8
same,efficacy,"Myzus persicae [3]; after 5 days, application rate 100 g/ha",90%
CCCc1cccc(Oc2ncc(C(=O)N(C)c3cccnc3)n2C)c1 [Example II-77],efficacy,Myzus persicae [1]; [5],90%
same,LogP-neutral,[2]; pH 7.8,2.66
same,efficacy,Myzus persicae [3]; [6],100%
Cn1c(C(=O)N(c2cccnc2)C2CC2)cnc1Oc1cccc(Cl)c1 [Example II-93],efficacy,Myzus persicae [1]; [5],100%
same,LogP-neutral,"[2]; HPLC, neutral range pH 7.8",2.41
same,efficacy,Myzus persicae [3]; [6],90%
Cn1c(C(=O)N(c2cccnc2)C2CC2)cnc1Oc1cncc(C(F)(F)F)c1 [Example II-91],Emax at 0.8 ppm,"Myzus persicae [1]; MYZUPE O, 0.8 ppm, 5 dat",70%
same,Emax at 4 ppm,"Myzus persicae [1]; MYZUPE O, 4 ppm, 5 dat",90%
same,pest or weed control at 20 ppm,Myzus persicae [1]; [5],100%
same,chromatographic logP,[2]; [8],2.1
same,Emax at 100 g/ha,Myzus persicae [3]; [9],90%
same,pest or weed control at 500 g/ha,Myzus persicae [3]; [10],90%
CN(C(=O)c1cnc(OC2CCCC2)n1C)c1cccnc1 [Example II-21],efficacy,Myzus persicae [1]; [5],90%
same,LogP-neutral,[2]; pH 7.8,1.83
same,efficacy,Myzus persicae [3]; [7],90%
CN(C(=O)c1cnc(Oc2ccc(Cl)nc2)n1C)c1cccnc1 [Example II-68],efficacy,Myzus persicae [1]; [5],100%
same,LogP-neutral,"[2]; HPLC, neutral range pH 7.8",1.45
same,efficacy,Myzus persicae [3]; [6],90%
CN(C(=O)c1cnc(Oc2cccnc2Cl)n1C)c1cccnc1 [Example II-66],efficacy,Myzus persicae [1]; [5],100%
same,LogP-neutral,"[2]; HPLC, neutral range pH 7.8",1.45
same,efficacy,Myzus persicae [3]; [6],100%
CN(C(=O)c1cnc(Oc2cnccc2Cl)n1C)c1cccnc1 [Example II-65],efficacy,Myzus persicae [1]; [5],100%
same,LogP-neutral,[2]; pH 7.8,1.4
same,efficacy,Myzus persicae [3]; [6],100%
CCOc1ncc(C(=O)N(CC)c2cccnc2)n1C [Example II-48],efficacy,Myzus persicae [1]; [5],100%
same,LogP-neutral,[2]; pH 7.8,1.45
same,efficacy,Myzus persicae [3]; [6],90%
CN(C(=O)c1cnc(Oc2cnc3ccccc3c2)n1C)c1cccnc1 [Example II-63],Emax at 0.8 ppm,"Myzus persicae [1]; MYZUPE O, 0.8 ppm, 5 dat",90%
same,Emax at 4 ppm,"Myzus persicae [1]; MYZUPE O, 4 ppm, 5 dat",100%
same,pest or weed control at 20 ppm,Myzus persicae [1]; [5],100%
same,chromatographic logP,[2]; [8],1.72
same,Emax at 100 g/ha,Myzus persicae [3]; [9],90%
same,pest or weed control at 500 g/ha,Myzus persicae [3]; [10],90%

# Source: patent publication US10647699B2, “Substituted 2-oxyimidazolylcarboxamides as pesticides” (Bayer CropScience Aktiengesellschaft, priority 2016, dated 2020)
